Laboratory results from patent publication US8580231B2, “Compositions and methods comprising magnetic resonance contrast agents” (Northwestern University, priority 2008, dated 2013).
“Also recorded” adds a separate entry of the source. Marks after values point to notes of the source that are not given here.

Key:
[1] = taken from Caravan et al.; cited from earlier work
[2] = Biodistribution study (Gd(III) in organs by ICP-MS); format: in vivo, mouse; conditions: mice, organs harvested 30 minute to 24 hour
[3] = tested on: PR(+) T47D and PR(−) MDA-MB-231 xenografted tumors; conditions: previously reported (ref. 19); cited from earlier work
[4] = target: T1, progesterone receptor A ligand binding domain (amino acids 675-933) fused to GST (PR-LBD-GST) (Homo sapiens, UniProt P06401); experiment: Receptor binding to nPR (fluorescence polarization, Example 17)
T1 construct: purchased Invitrogen
T1 sequence (P06401 675-933): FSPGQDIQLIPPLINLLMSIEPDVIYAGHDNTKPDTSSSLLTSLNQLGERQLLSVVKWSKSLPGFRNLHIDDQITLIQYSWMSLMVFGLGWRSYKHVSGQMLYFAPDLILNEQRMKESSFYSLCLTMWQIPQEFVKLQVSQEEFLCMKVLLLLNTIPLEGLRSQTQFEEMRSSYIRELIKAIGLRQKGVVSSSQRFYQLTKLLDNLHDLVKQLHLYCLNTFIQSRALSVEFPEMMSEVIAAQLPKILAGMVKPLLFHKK

[5] = tested on: PR(+) (T47D) human breast cancer cells; experiment: Cellular uptake studies (Example 17), PR(+) cells; format: cell-based; conditions: 0.125 mM for 1, 4, 10, 24 h or 0.25-2 mM for 4 h
Experimental: Contrast agents were dissolved in the appropriate medium (containing stripped FBS) for each cell line (T47D and MDA-MB-231) at concentrations of 2, 1, 0.5, 0.25, and 0.125 mM of contrast agent. For concentration-dependent cellular uptake, cells were incubated with 2, 1, 0.5, and 0.25 mM of each contrast agent for 4 h. For the time dependent cellular uptake, cells were incubated with 0.125 mM contrast agent for 1, 4, 10, and 24 h. After incubation, the media was removed, and the cells were rinsed twice with PBS and trypsinized. An aliquot was used for cell counting and the remaining portion was analyzed for Gd(III) content by ICP-MS. Each condition was done in triplicate.
To determine the cell permeability of the compounds, PR(+) (T47D) and PR(−) (MDA-MB-231) human breast cancer cells were incubated with 1a, 2a, 3a, and 4a. Time- and concentration-dependent experiments were performed to identify the optimal dose and incubation times of the agents (FIG. 16).

[6] = tested on: PR(+) T47D and PR(−) MDA-MB-231 xenografted tumors; experiment: In vivo MR imaging of xenografted nude mice (contrast-to-noise ratio); set-up: species or system mouse; conditions: for change in tumor CNR over preinjection levels: 2 and 6 h postinjection; for change in tumor CNR over preinjection levels / CNR of PR(+) tumor compared to PR(−) tumor: intraperitoneal; for CNR of PR(+) tumor compared to PR(−) tumor: 0.15 mmGd/kg in DMSO
Experimental: Female Balb/C athymic nude mice were acquired from Harlan (Indianapolis, Ind.) and housed under pathogen free conditions. All animal studies were conducted at Northwestern University in accordance with the National Institutes of Health Guide for the Care and Use of Laboratory Animals and established institutional animal use and care protocols. Due to low circulating estradiol levels in nude mice, a 17β-estradiol pellet (Innovative Research of America, Sarasota, FA, 70-day release, 0.72 mg/pellet) was implanted subcutaneously in the nape of the neck to ensure growth of estrogen-dependent T47D cells. Two to seven days later, T47D and MDA-MB-231 ((1−2)×10^6) cells were suspended in Matrigel (1:1 volume) and injected subcutaneously into the rear flank (T47D cells on the right side and MDA-MB-231 cells on the left). Mice were monitored for tumor growth every two to three days after injection of cells. Mice were imaged two to three weeks after xenografting when tumors were palpable with a minimum weight of 20 mg (determined after tumor removal postimaging).
Xenografted nude mice were injected intraperitoneally (n=1 per compound) with each agent (0.15 mmGd/kg) dissolved in 50 μL, DMSO. During imaging, mice were maintained under anesthesia (1-3% isoflurane) but were allowed to wake up and recover between imaging time points. Tubing containing heated water was positioned under the mouse to keep a constant body temperature. All MR imaging was performed on a 89 mm bore size PharmaScan 7.05 T MR imager fitted with shielded gradient coils (Bruker BioSpin, Billerica, Mass., USA) using a RF RES 300 1H 089/038 quadrature transmit receive volume coil (Bruker BioSpin, Billerica, Mass., USA). […] Images were analyzed using ImageJ. Contrast-to-noise ratio (CNR) was calculated using the equation CNR=(SITissue−SImuscle)/σnoise where SITumor is the signal intensity in the tumor, SIMuscle is the signal intensity in the muscle, and σnoise is the standard deviation of the noise. CNRs were averaged over two to three axial slices in which the tumors were clearly demarcated.
To determine whether the water-soluble progesterone-conjugated agents would increase the contrast-to-noise ratio (CNR) of PR(+) tumors relative to PR(−) tumors in vivo, athymic nude mice with PR(+) and PR(−) xenografted tumors were injected intraperitoneally with 1a, 2a, or 3a dissolved in DMSO and imaged at 2 and 6 h postinjection. Intraperitoneal injection was chosen over subcutaneous injection because it yielded more consistent results in previous studies, and the parent compound, ProGlo, has been more extensively studied for its biodistribution after intraperitoneal injection. (19) In addition, while these agents are water-soluble, they were dissolved in DMSO to compare back to previous in vivo imaging with the insoluble ProGlo and the control agent 4a.(19)

[7] = tested on: PR / pPRE-luciferase in T47D cells; experiment: Luciferase assay for nPR activation; format: cell-based, human; conditions: 24 h
Experimental: T47D cells were grown in phenol-free medium, and cells were trypsinized and plated in 24-well plate (50 000 cells/well). Incubation of cells with the pPRE-luciferase plasmid (100 ng/well, construct provided by Dr. Ken Korach, NIEHS, NIH), RSV-β-galactosidase (100 ng/well, provided by Dr. William T. Beck, University of Illinois at Chicago), and Lipofectamine 2000 (1 μL per well, Invitrogen, Carlsbad, Calif.) in Opti-MEM was performed overnight at 37° C. inside a humidified incubator. The cells were treated with 1a, 2a, 3a, and 4a for an additional 24 h.
To measure luciferase production, cells were lysed in 100 μL GME buffer (25 mM glycylglycine at pH 7.8, 15 mM MgSO4, 4 mM EGTA, 1 mM dithiothreitol, and 1% Triton X-100) and lysates were added to assay buffer (GME buffer, 16.5 mM KPO4, 2.2 mM ATP, and 1.1 mM dithiothreitol). Luciferase substrate was injected followed by a 30 s read by a FLUOstar OPTIMA (BMG Lab Tech, Offenburg, Germany). LacZ activity (50 μL lysate) was measured from cleavage of ONPG. The sample results were normalized to β-galactosidase to account for transfection efficiency by dividing the sum of the luciferase activity by the sum of the β-galactosidase activity. Fold change was calculated by taking the luciferase value, dividing by the β-galactosidase activity, and then dividing by the solvent control, which was set equal to one. […]

Molecule	tissue distribution of Gd(III) (percentage per gram of tissue) [2]	cellular Gd(III) uptake [5]	change in tumor CNR over preinjection levels [6]	CNR of PR(+) tumor compared to PR(−) tumor ([6]; 6 h postinjection)	also measured
CC(O)CN1CCN(CC(=O)[O-])CCN(CC(=O)[O-])CCN(CC(=O)[O-])CC1.[Gd+3] (centres unmarked) [Prohance]	–	–	–	–	Relaxivity [1]: 3.7* mM^−1s^−1
CCCCCCN1CCN(CC(=O)[O-])CCN(CC(=O)[O-])CCN(CC(=O)[O-])CC1.[Gd+3] [hexyl-DO3A-Gd(III)]	mainly end up in the liver and kidney	–	–	–	–
DO3A-Gd(III)	mainly end up in the liver and kidney	–	–	–	tumor CNR after injection [3]: only minimal increases in CNR over time
{2,2′,2″-(10-(2-(((1-(5-(2-(10,13-Dimethyl-3-oxo-2,3,6,7,8,9,10,11,12,13,14,15,16,17-tetradecahydro-1H-cyclopenta[a]phenanthren-17-yl)-2-oxoethoxy)pentyl)-1H-1,2,3-triazol-4-yl)methyl)amino)-2-oxoethyl)-1,4,7,10-tetraazacyclododecane-1,4,7-triyl)triacetate}gadolinium [Compound 1a]	–	increased slightly after 1 h and then stabilized	several-fold increase in CNR; also recorded: increased CNR by 2 h, but CNR had decreased by 6 h	significantly higher CNR	RBA, fold less than that of progesterone [4]: about 100 fold; CNR of PR(+) tumor compared to PR(−) tumor ([6]; 2 h postinjection): significantly higher CNR; fold change in CNR in the PR(+) tumors, percent higher than with ProGlo ([6]; 2 h time point, compared to preinjection CNR): 16%
{2,2′,2″-((10-((1-(5-(2-(10,13-Dimethyl-3-oxo-2,3,6,7,8,9,10,11,12,13,14,15,16,17-tetradecahydro-1H-cyclopenta[a]phenanthren-17-yl)-2-oxoethoxy)pentyl)-1H-1,2,3-triazol-4-yl)methyl)-1,4,7,10-tetraazacyclododecane-1,4,7-triyl)triacetate}gadolinium [Compound 2a]	–	time-dependent accumulation	slow increase in CNR over time	significantly higher CNR	PRE-mediated transcription (luciferase activity) [7]: lowest efficacy
